The source of these data is patent US7183309B2, “Indole derivatives useful as progesterone receptor modulators” (Janssen Pharmaceutica N.V., priority 2004, dated 2007).

The subject of this assay is T47D human breast cancer cells. The experiment in a line: In Vitro Testing-T47 D Assay (alkaline phosphatase assay). In kind it is cell-based. Conditions: alkaline phosphatase luminescence readout after 24 h. On the procedure:
In Vitro Testing-T47 D Assay
T47D human breast cancer cells are grown in RPMI medium without phenol red (Invitrogen) containing 10% (v/v) heat-inactivated fetal bovine serum (FBS; Hyclone), 1% (v/v) penicillin-streptomycin (Invitrogen), 1% (w/v) glutamine (Invitrogen), and […] (Sigma). Incubation conditions are 37° C. in a humidified 5% (v/v) carbon dioxide environment. For assay, the cells are plated in 96-well tissue culture plates at 10,000 cells per well in assay medium [RPMI medium without phenol red (Invitrogen) containing 5% (v/v) charcoal-treated FBS (Hyclone) and 1% (v/v) penicillin-streptomycin (Invitrogen)]. Two days later, the medium is decanted and the compounds are added in a final concentration of 0.1% (v/v) dimethyl sulfoxide in fresh assay medium. Twenty-four hours later, an alkaline phosphatase assay is performed using a SEAP kit (BD Biosciences Clontech, Palo Alto, Calif.). Briefly, the medium is decanted and the cells are fixed for 30 minutes at room temperature with 5% (v/v) formalin (Sigma). The cells are washed once with room temperature Hank's buffered saline solution (Invitrogen). Equal volumes (0.05 mL) of 1× Dilution Buffer, Assay Buffer and 1:20 substrate/enhancer mixture are added. After 1-hour incubation at room temperature in the dark, the lysate is transferred to a white 96-well plate (Dynex) and luminescence is read using a LuminoSkan Ascent (Thermo Electron, Woburn, Mass.).

As for `CC(C)(O)c1[nH]c2cc(C(F)(F)F)c([N+](=O)[O-])cc2c1Sc1ccccc1` [Example 1, 2-(5-Nitro-3-phenylsulfanyl-6-trifluoromethyl-1H-indol-2-yl)-propan-2-ol], under “Homo sapiens”, the inhibition – broadly, the change of the read-out against control, counted positive when it falls – at 3 µM is 99% and the IC50 (commonly the concentration that inhibits the measured activity by half) came to 62 nM.

With `C=C(C)c1[nH]c2cc(C(F)(F)F)c([N+](=O)[O-])cc2c1Sc1ccccc1` [Example 2, 2-Isopropenyl-5-nitro-3-phenylsulfanyl-6-trifluoromethyl-1H-indole], the IC50 (Homo sapiens, T47D, 24 h) was greater than 10000 nM.

In the case of `O=[N+]([O-])c1ccc(Sc2c(-c3ccccc3)[nH]c3cc(Cl)c(F)cc23)cc1` [Example 3, 6-Chloro-5-fluoro-3-(4-nitro-phenylsulfanyl)-2-phenyl-1H-indole], for the setting “Homo sapiens, T47D, 24 h”, the inhibition at 3 µM came to 88% and the IC50 was found to be 1400 nM.

Take `CC(C)(O)c1[nH]c2cc(C(F)(F)F)c(C#N)cc2c1Sc1cccc([N+](=O)[O-])c1` [Example 4, 2-(1-Hydroxy-1-methyl-ethyl)-3-(3-nitro-phenylsulfanyl)-6-trifluoromethyl-1H-indole-5-carbonitrile]: under “Homo sapiens”, the inhibition at 3 µM amounted to 69% and the IC50 is 2190 nM.

Take `Fc1cc2c(Sc3ccccc3)c(-c3ccccc3)[nH]c2cc1Cl` [Example 5, 6-Chloro-5-fluoro-2-phenyl-3-phenylsulfanyl-1H-indole]: for the setting “Homo sapiens, T47D, 24 h”, the inhibition at 3 µM worked out at 103% and the IC50 is 1760 nM.

As to `O=[N+]([O-])c1cccc(Sc2c(-c3ccccc3)[nH]c3cc(Cl)c(F)cc23)c1` [Example 6, 6-Chloro-5-fluoro-3-(3-nitro-phenylsulfanyl)-2-phenyl-1H-indole], where the note is “Homo sapiens, T47D, 24 h”, the inhibition at 3 µM turned out to be 99% and it took 1900 nM to reach half-maximal inhibition (IC50).

As to `O=[N+]([O-])c1cccc(S(=O)(=O)c2c(-c3ccccc3)[nH]c3cc(Cl)c(F)cc23)c1` [Example 7, 6-Chloro-5-fluoro-3-(3-nitro-benzenesulfonyl)-2-phenyl-1H-indole], the “inh. @ 3 uM” value is given as 55%. For the same molecule, 3620 nM corresponded to half-maximal inhibition (Homo sapiens, T47D, 24 h) (IC50).

Turning to `O=[N+]([O-])c1cccc(S(=O)(=O)c2c(-c3ccccc3)[nH]c3cc(Cl)c(F)cc23)c1` [Example 8, 6-Chloro-5-fluoro-3-(3-nitro-benzenesulfonyl)-2-phenyl-1H-indole], the “inh. @ 3 uM” value was found to be 82% and the IC50 is 3180 nM.
